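Following 48 hours of exposure in 96-well plates, responses at five concentrations were used to interpolate endpoints linearly. Abbreviation: GI50, concentration required for 50% inhibition of growth. TGI denotes the concentration required for complete inhibition of growth.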
Key:
Assay in all cases: NCI-60 cell line screen, 48 h
HT29 colon = tested on: HT29 colon
MCF7 breast = tested on: MCF7 breast
SK-MEL-5 melanoma = tested on: SK-MEL-5 melanoma
MDA-MB-231 breast = tested on: MDA-MB-231 breast
OVCAR-5 ovarian = tested on: OVCAR-5 ovarian
SW-620 colon = tested on: SW-620 colon
CCRF-CEM leukemia = tested on: CCRF-CEM leukemia
SNB-75 CNS = tested on: SNB-75 CNS
NCI/ADR-RES ovarian = tested on: NCI/ADR-RES ovarian
ACHN renal = tested on: ACHN renal
SK-MEL-28 melanoma = tested on: SK-MEL-28 melanoma
DU-145 prostate = tested on: DU-145 prostate
UACC-257 melanoma = tested on: UACC-257 melanoma
NCI-H460 lung = tested on: NCI-H460 lung
SK-MEL-2 melanoma = tested on: SK-MEL-2 melanoma
OVCAR-3 ovarian = tested on: OVCAR-3 ovarian
KM12 colon = tested on: KM12 colon
IGROV1 ovarian = tested on: IGROV1 ovarian
LOX IMVI melanoma = tested on: LOX IMVI melanoma
UO-31 renal = tested on: UO-31 renal
SF-539 CNS = tested on: SF-539 CNS
TK-10 renal = tested on: TK-10 renal
RPMI-8226 leukemia = tested on: RPMI-8226 leukemia
NCI-H522 lung = tested on: NCI-H522 lung
HCT-116 colon = tested on: HCT-116 colon
EKVX NSCLC = tested on: EKVX NSCLC
MDA-MB-435 = tested on: MDA-MB-435
PC-3 prostate = tested on: PC-3 prostate
BT-549 breast = tested on: BT-549 breast
SF-268 CNS = tested on: SF-268 CNS
MALME-3M melanoma = tested on: MALME-3M melanoma
OVCAR-8 ovarian = tested on: OVCAR-8 ovarian
HS 578T breast = tested on: HS 578T breast
RXF 393 renal = tested on: RXF 393 renal
A549 NSCLC = tested on: A549 NSCLC
COLO 205 colon = tested on: COLO 205 colon
SN12C renal = tested on: SN12C renal
SR leukemia = tested on: SR leukemia
SK-OV-3 ovarian = tested on: SK-OV-3 ovarian
K-562 leukemia = tested on: K-562 leukemia
OVCAR-4 ovarian = tested on: OVCAR-4 ovarian
HCT-15 colon = tested on: HCT-15 colon
MOLT-4 leukemia = tested on: MOLT-4 leukemia
HOP-62 NSCLC = tested on: HOP-62 NSCLC
UACC-62 melanoma = tested on: UACC-62 melanoma
HCC-2998 colon = tested on: HCC-2998 colon
NCI-H226 lung = tested on: NCI-H226 lung
NCI-H23 lung = tested on: NCI-H23 lung
SNB-19 CNS = tested on: SNB-19 CNS
U251 CNS = tested on: U251 CNS
HL-60(TB) leukemia = tested on: HL-60(TB) leukemia
A498 renal = tested on: A498 renal
786-0 renal = tested on: 786-0 renal
M14 melanoma = tested on: M14 melanoma
SF-295 CNS = tested on: SF-295 CNS
HOP-92 NSCLC = tested on: HOP-92 NSCLC
CAKI-1 renal = tested on: CAKI-1 renal

## CCN1C(=O)N(CC)C2C1NN=c1s/c(=C\c3cccnc3)c(=O)n12 (stereo unspecified)
HT29 colon
  GI50: 386 nM
  TGI: > 100000 nM
MCF7 breast
  GI50: 333 nM
  TGI: > 100000 nM
SK-MEL-5 melanoma
  GI50: 344 nM
  TGI: 12600 nM
MDA-MB-231 breast
  GI50: 3570 nM
  TGI: > 95300 nM
OVCAR-5 ovarian
  GI50: 1970 nM
  TGI: > 100000 nM
SW-620 colon
  GI50: 393 nM
  TGI: > 100000 nM
CCRF-CEM leukemia
  GI50: 410 nM
  TGI: > 100000 nM
SNB-75 CNS
  GI50: 116 nM
NCI/ADR-RES ovarian
  GI50: 380 nM
  TGI: > 100000 nM
ACHN renal
  GI50: 694 nM
  TGI: > 100000 nM
SK-MEL-28 melanoma
  GI50: 957 nM
  TGI: > 100000 nM
DU-145 prostate
  GI50: 412 nM
  TGI: > 48700 nM
UACC-257 melanoma
  GI50: > 100000 nM
  TGI: > 100000 nM
NCI-H460 lung
  GI50: 400 nM
  TGI: > 100000 nM
SK-MEL-2 melanoma
  GI50: > 100000 nM
  TGI: > 100000 nM
OVCAR-3 ovarian
  GI50: 359 nM
  TGI: 8530 nM
KM12 colon
  GI50: 464 nM
  TGI: > 100000 nM
IGROV1 ovarian
  GI50: 843 nM
  TGI: > 100000 nM
LOX IMVI melanoma
  GI50: 543 nM
  TGI: > 100000 nM
UO-31 renal
  GI50: 1530 nM
  TGI: > 100000 nM
SF-539 CNS
  GI50: 319 nM
  TGI: 2510 nM
TK-10 renal
  GI50: > 100000 nM
  TGI: > 100000 nM
RPMI-8226 leukemia
  GI50: 410 nM
  TGI: > 100000 nM
NCI-H522 lung
  GI50: 474 nM
  TGI: > 100000 nM
HCT-116 colon
  GI50: 478 nM
  TGI: > 100000 nM
EKVX NSCLC
  GI50: 659 nM
  TGI: > 100000 nM
MDA-MB-435
  GI50: 154 nM
  TGI: 527 nM
PC-3 prostate
  GI50: 451 nM
  TGI: > 100000 nM
BT-549 breast
  GI50: 1040 nM
  TGI: 19900 nM
SF-268 CNS
  GI50: 21800 nM
  TGI: > 100000 nM
MALME-3M melanoma
  GI50: 599 nM
  TGI: > 100000 nM
OVCAR-8 ovarian
  GI50: 823 nM
  TGI: > 100000 nM
HS 578T breast
  GI50: 440 nM
  TGI: > 100000 nM
RXF 393 renal
  GI50: 271 nM
  TGI: 3350 nM
A549 NSCLC
  GI50: 733 nM
  TGI: > 100000 nM
COLO 205 colon
  GI50: 392 nM
  TGI: > 53300 nM
SN12C renal
  GI50: 616 nM
  TGI: > 100000 nM
SR leukemia
  GI50: 132 nM
  TGI: > 100000 nM
SK-OV-3 ovarian
  GI50: 2020 nM
  TGI: > 100000 nM
K-562 leukemia
  GI50: 300 nM
  TGI: > 100000 nM
OVCAR-4 ovarian
  GI50: 5720 nM
  TGI: > 100000 nM
HCT-15 colon
  GI50: 414 nM
  TGI: > 100000 nM
MOLT-4 leukemia
  GI50: 596 nM
  TGI: > 100000 nM
HOP-62 NSCLC
  GI50: 628 nM
  TGI: > 100000 nM
UACC-62 melanoma
  GI50: 417 nM
  TGI: > 100000 nM
HCC-2998 colon
  GI50: 1290 nM
  TGI: > 100000 nM
NCI-H226 lung
  GI50: 1100 nM
  TGI: > 100000 nM
NCI-H23 lung
  GI50: 689 nM
  TGI: > 100000 nM
SNB-19 CNS
  GI50: 676 nM
  TGI: > 100000 nM
U251 CNS
  GI50: 612 nM
  TGI: > 100000 nM
HL-60(TB) leukemia
  GI50: 395 nM
A498 renal
  GI50: 224 nM
  TGI: 1010 nM
786-0 renal
  GI50: 695 nM
  TGI: > 100000 nM
M14 melanoma
  GI50: 298 nM
  TGI: > 100000 nM
SF-295 CNS
  GI50: 353 nM
  TGI: > 100000 nM
HOP-92 NSCLC
  TGI: > 100000 nM
CAKI-1 renal
  GI50: 346 nM
  TGI: > 100000 nM

From PubChem BioAssay (NCI)
